A word on the inhibition: it is the drop in the measured response relative to a control, in per cent.

For this experiment, the target named is T1, EPHB4 (Homo sapiens, UniProt P54760).
T1 construct: purchased Thermo Fisher Scientific (Life Technologies) SelectScreen
The experiment can be described thus: SelectScreen Z'LYTE. It counts as biochemical. The gist of the method:
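Percent values come from Thermo SelectScreen profiling of NU5455, combining activity and binding assays. CSF1R was run in Z'LYTE format at Km app ATP, and CAMK1 in Adapta format with ATP listed at 10.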

T1 sequence (P54760 16-987): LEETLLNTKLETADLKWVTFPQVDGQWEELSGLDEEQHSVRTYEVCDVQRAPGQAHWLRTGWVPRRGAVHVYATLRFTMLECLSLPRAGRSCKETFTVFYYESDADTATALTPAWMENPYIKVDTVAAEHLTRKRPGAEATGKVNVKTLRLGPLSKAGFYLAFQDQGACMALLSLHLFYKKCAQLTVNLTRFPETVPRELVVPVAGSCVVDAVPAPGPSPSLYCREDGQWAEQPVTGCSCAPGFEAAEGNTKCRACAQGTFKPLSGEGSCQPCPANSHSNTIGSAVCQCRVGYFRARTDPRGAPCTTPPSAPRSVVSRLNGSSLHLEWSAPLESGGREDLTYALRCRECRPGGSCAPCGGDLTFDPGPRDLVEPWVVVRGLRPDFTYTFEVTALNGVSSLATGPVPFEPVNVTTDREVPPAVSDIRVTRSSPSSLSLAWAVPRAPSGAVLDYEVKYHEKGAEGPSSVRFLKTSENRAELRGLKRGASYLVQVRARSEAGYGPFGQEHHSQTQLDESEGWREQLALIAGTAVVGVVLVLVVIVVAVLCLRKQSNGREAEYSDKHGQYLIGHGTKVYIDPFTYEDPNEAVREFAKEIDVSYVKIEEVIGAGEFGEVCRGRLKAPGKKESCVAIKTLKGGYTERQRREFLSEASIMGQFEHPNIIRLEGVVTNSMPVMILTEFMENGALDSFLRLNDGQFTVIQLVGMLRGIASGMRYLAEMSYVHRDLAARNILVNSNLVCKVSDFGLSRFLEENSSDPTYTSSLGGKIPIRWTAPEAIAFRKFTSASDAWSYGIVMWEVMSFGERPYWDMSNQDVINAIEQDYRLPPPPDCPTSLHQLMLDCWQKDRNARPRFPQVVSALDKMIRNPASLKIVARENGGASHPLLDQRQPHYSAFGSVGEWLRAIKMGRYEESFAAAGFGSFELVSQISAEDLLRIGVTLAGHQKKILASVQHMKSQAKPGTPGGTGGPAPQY

Turning to `CN(C(=O)CN1CCOCC1)c1ccc2sc3c(-c4cccc5c(=O)cc(N6CC7CCC(C6)O7)oc45)cccc3c2c1` [NU5455], the inhibition at 1 µM is -5.3%.

For the origin of these results see PMC6934184, “Selective DNA-PKcs inhibition extends the therapeutic index of localized radiotherapy and chemotherapy” (The Journal of Clinical Investigation, 2019).
